# Data: ChEMBL document CHEMBL2073831, “Biliary transport of irinotecan and metabolites in normal and P-glycoprotein-deficient mice” (Cancer Chemother Pharmacol, 2002)
# Target: P-glycoprotein 1 and 3 (MDR1a/MDR1b) (Mus musculus, UniProt P21447+P06795)
# Experiment: TP_TRANSPORTER: decrease in biliary excretion in mdr1a/1b(-/-) mouse
# Type: functional, organism-based, Bile
# Conditions: in vivo
smiles,measurement,value
CCc1c2c(nc3ccc(OC(=O)N4CCC(N5CCCCC5)CC4)cc13)-c1cc3c(c(=O)n1C2)COC(=O)[C@]3(O)CC [IRINOTECAN],Activity,substrate [+]
